Experimental data taken from patent US7196192B2, “28-epirapalogs” (Ariad Gene Therapeutics, Inc., priority 1999, dated 2007).

Columns and labels:
[1] = biological target: FKBP (Homo sapiens, UniProt P62942); assay: FKBP competitive binding assay based on fluorescence polarization (FP); details: competitive FP binding, fluorescein-labelled FK506 probe (AP1491); read-out: FKBP binding IC50
Experimental: A Competitive Binding FP Assay is described in detail in WO99/36553 and WO96/41865. That assay permits the in vitro measurement of an IC50 value for a given compound which reflects its ability to bind to an FKBP-protein in competition with a labeled FKBP ligand, such as, for example, FK506.
(§1) A diverse group of C7-modified 28-epirapalogs were prepared as described in Example 4.

[2] = biological target: T1, transcriptional switch components containing FKBP and 2098L mutant FRB domains (Homo sapiens, UniProt P42345+P62942); assay: transcription assay in engineered HD1080 cells expressing SEAP (txn 2098L); type: cell-based; details: HD1080 cells, FKBP and 2098L mutant FRB switch, SEAP reporter; read-out: txn 2098L EC50
T1 construct: transcriptional switchcomponents containing FKBP and 2098L mutant FRB domains, respectively; fused on or other part: The two switch components are separate chimeric proteins; Neither is given for this cell line
Procedure, shortened: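 HT1080-type engineered HD1080 cells constitutively express FKBP and 2098L-mutant FRB switch components and express SEAP upon compound-induced multimerization. Compound added to medium; secreted SEAP reporter measured after incubation. EC50 derived.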

[3] = test system: murine splenocyte; assay: murine splenocyte assay for immunosuppressive activity; type: cell-based; details: Mus musculus, Splenocyte, murine splenocyte assay, immunosuppressive activity; read-out: Splenocyte IC50
Experimental: 3. Conventional murine splenocyte assay for immunosuppressive activity.
as §1

Chain of FKBP (P62942 whole entry): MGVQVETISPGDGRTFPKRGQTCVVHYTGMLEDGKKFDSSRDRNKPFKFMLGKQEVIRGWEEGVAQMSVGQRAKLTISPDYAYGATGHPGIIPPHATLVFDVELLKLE
T1 sequence (P62942 2-108 limits assumed, stated change not applied, other chains not shown): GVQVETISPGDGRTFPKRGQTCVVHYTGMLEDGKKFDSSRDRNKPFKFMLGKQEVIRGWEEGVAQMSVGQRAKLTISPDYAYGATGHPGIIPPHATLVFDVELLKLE

Compound | IC50 [1] [nM] | EC50 [2] [nM] | IC50 [3] [nM]
COCO[C@@H]1CC[C@@H](C[C@@H](C)[C@@H]2CC(=O)[C@H](C)/C=C(\C)[C@H](O)[C@@H](OC)C(=O)[C@H](C)C[C@H](C)/C=C/C=C/C=C(\C)[C@@H](OC)C[C@@H]3CC[C@@H](C)[C@@](O)(O3)C(=O)C(=O)N3CCCC[C@H]3C(=O)O2)C[C@H]1OC [43-O-MOM-28-epirapamycin] | 27 | 7 | 0.6 to 1.6
C=CCO[C@@H]1CC[C@@H](C[C@@H](C)[C@@H]2CC(=O)[C@H](C)/C=C(\C)[C@H](O)[C@@H](OC)C(=O)[C@H](C)C[C@H](C)/C=C/C=C/C=C(\C)[C@@H](OC)C[C@@H]3CC[C@@H](C)[C@@](O)(O3)C(=O)C(=O)N3CCCC[C@H]3C(=O)O2)C[C@H]1OC [43-O-allyl-28-epirapamycin] | 65 | 8 | 641 to 684
CO[C@H]1C[C@@H]2CC[C@@H](C)[C@@](O)(O2)C(=O)C(=O)N2CCCC[C@H]2C(=O)O[C@H]([C@H](C)C[C@@H]2CC[C@@H](OCc3ccccc3)[C@H](OC)C2)CC(=O)[C@H](C)/C=C(\C)[C@H](O)[C@@H](OC)C(=O)[C@H](C)C[C@H](C)/C=C/C=C/C=C/1C [43-O-benzyl-28-epirapamycin] | 63 | 12 | ~1200
CO[C@H]1C[C@@H]2CC[C@@H](C)[C@@](O)(O2)C(=O)C(=O)N2CCCC[C@H]2C(=O)O[C@H]([C@H](C)C[C@@H]2CC[C@@H](OC)[C@H](OC)C2)CC(=O)[C@H](C)/C=C(\C)[C@H](O)[C@@H](OC)C(=O)[C@H](C)C[C@H](C)/C=C/C=C/C=C/1C [43-O-methyl-28-epirapamycin] | 34 | 3 | 20 to 31
